Measured values reported in patent US20110009332A1, “Therapeutic Treatment Of Wounds” (SOUTHWEST RESEARCH INSTITUTE, priority 2009, published 2011).
Where a SMILES comes first, the peptide text is derived from it. The star is where a group is joined. Cbz = O=C(OCc1ccccc1)*; OtBu = CC(C)(C)O*

Tested on: TGF-β1
Experiment: TGF-β1 gene expression (qPCR, normalized over 18S) in human dermal fibroblasts
Format: cell-based
Protocol: An examination of gene expression of TFG-β1 was conducted using a number of proteasome inhibitors including, proteasome inhibitor-1, curcumin, MG-132 and bortezomib. Human neonatal dermal fibroblasts (AllCells, Catalog No. HN006001) were maintained in Dulbecco's modified Eagle's medium (DMEM) supplemented with 10% fetal bovine serum. Early passage cells were plated at 2×10^4 cells/cm^2 and grown in humidified 5% CO2 at 37° C. for 24 hours. Spent media was replaced the following day with assay media including Proteasome inhibitor-1 was added in DMEM at 1 μM and 0.1 μM. Untreated cells were used as the control group. For the human osteogenesis PCR array, the experimental group was treated only at 1 μM. In addition, in separate trials, spent media was replace by assay media of curcumin added in DMEM at 10 μM and 100 μM, MG-132 in DMEM at 0.1 μM and 1 μM, and bortezomib in DMEM at 0.1 μm and 1 μM.
Phenol-chloroform extraction was performed to isolate the total RNA for real time polymerase chain reaction array. More specifically, the total RNA was prepared using TRI REAGENT (Ambion, product number 9738), wherein the total RNA was obtained from the human neonatal dermal fibroblasts. Note that isolation was performed as per the instructions provided with the TRI REAGENT. The RNA was used for subsequent quantitative polymerase chain reaction (qPRC) gene expression of TFG-β1 measured using hydrolysis probes (TAQMAN probes available from Applied Biosystems) as described further below.
Concentration and integrity of the obtained total RNA was assessed by absorbance in a spectrophotometer at 260 nm and 280 nm and by electrophoresis in 1% agarose with formaldehyde loading dye. For TAQMAN gene expression assays, cDNA was synthesized from 2 μg of total RNA using the High Capacity cDNA Reverse Transcription Kit (Applied Biosystems, product number 4368814), again following the protocol supplied with the kit. The resulting cDNA was diluted 1:10.
For TAQMAN gene expression, gene-specific fluorescent labeled TAQMAN primers for FAM-TFG-β1 (Applied Biosystems, product number Hs00998130.m1) and TAQMAN reference VIC-18S ribosomal RNA (Applied Biosystems, product number 4310893E) were used to target the gene of interest. A cocktail of universal master mix (Applied Biosystems, product number 4369016) was prepared individually for both set of primers which contained Taq Polymerase, dNTPs, and buffer. Template cDNA's were added separately to respective individual wells in triplicate samples. PCR was performed on StepOne Plus Real Time System instrument (Applied Biosystems). The amplification program consisted of 1 cycle of 95° C. with 10 minute hold (hot start) followed by 50 cycles of 95° C. with 15 second annealing hold and 1 minute 60° C. specified acquisition hold.
For human osteogenisis PCR array, total RNA was prepared using silica matrix purification using RNEASY MINI KIT (Qiagen, product number 74101) according to the manufacturer's recommendations. cDNA was synthesized from 1 μg of purified DNA-free RNA accordingly to RT^2First Strand Kit (SABiosciences, C-03). The resulting cDNA was diluted 1:30 and amplified. The procedure for the PCR array using real-time PCR is based on the RT^2 Profiler PCR array system instructions for Human Osteogenesis (SABiosciences, product number PAHS-026C). A cocktail reaction mix was setup as recommended by the PCR manufacturer (SABiosceiences, product number PA-012). PCR was performed using the same temperature parameters as used with the StepOne Plus Real Time System instrument. The Ct value of endogenous reference gene (i.e. 18s) was used to control for input RNA and then used to normalize target gene (i.e. TFG-β1) tested from the same cDNA sample ([…]), and then calibrated to an internal reference sample ([…]). Change in gene expression was determined by the expression 2̂-([…]). […]

[1] = 0.1 μM inhibitor, FIG. 30, non-treated 1.50 (MG132) / 1.43 (bortezomib)
[2] = 1 μM inhibitor, FIG. 30, non-treated 1.50 (MG132) / 1.43 (bortezomib)

CC(C)C[C@@H](C=O)NC(=O)[C@H](CC(C)C)NC(=O)[C@H](CC(C)C)NC(=O)OCc1ccccc1 [MG132] (Cbz-Leu-Leu-Leu-aldehyde)
TFG-β1/18 mRNA levels [1]: 2.12 a.u. | TFG-β1/18 mRNA levels [2]: 1.49 a.u.

CC[C@H](C)[C@H](NC(=O)OCc1ccccc1)C(=O)N[C@@H](CCC(=O)OC(C)(C)C)C(=O)N[C@@H](C)C(=O)N[C@H](C=O)CC(C)C [PS-1, Z-Ile-Glu(OBu^t)-Ala-Leu-H] (Cbz-IE(OtBu)AL-aldehyde)
TFG-β1/18 mRNA levels (0.1 μM PS-1, FIG. 28, nontreated 1.15, decrease relatively statistically insignificant): ~1.03 a.u. | TFG-β1/18 mRNA levels (1.0 μM PS-1, FIG. 28, nontreated 1.15, decrease relatively statistically insignificant): ~1.11 a.u.

COc1cc(/C=C/C(=O)CC(=O)/C=C/c2ccc(O)c(OC)c2)ccc1O [curcumin]
TFG-β1/18 mRNA levels (10 μM curcumin, FIG. 29, non-treated 1.15): 0.644 a.u. | TFG-β1/18 mRNA levels (100 μM curcumin, FIG. 29, non-treated 1.15): 1.53 a.u.

CC(C)C[C@H](NC(=O)[C@H](Cc1ccccc1)NC(=O)c1cnccn1)B(O)O [bortezomib]
TFG-β1/18 mRNA levels [1]: 1.99 a.u. | TFG-β1/18 mRNA levels [2]: 1.97 a.u.
